Assays:
[1] = Cytotoxicity against human PANC1 cells under nutrient-rich condition after 24 hrs by WST8 dye based assay; type: functional; conditions: PANC-1, 24 h, read-out: LC50 (the source's name)
[2] = Cytotoxicity against human PANC1 cells under nutrient-deprived condition after 24 hrs by WST8 dye based assay; type: functional; conditions: PANC-1, 24 h, read-out: LC50 (the source's name)
PANC-1 [3] = assay: Stimulation of cell growth in human PANC1 cells at 6.25 to 50 uM under nutrient-deprived condition after 24 hrs by WST8 dye based assay; type: functional
PANC-1 [4] = assay: Induction of apoptosis in human PANC1 cells under nutrient-deprived condition after 24 hrs; type: functional, cell-based

SMILES | CC50 [1] [µM] | CC50 [2] [µM] | Activity (PANC-1 [3]) [%] | Activity (PANC-1 [4])
CC(C)=CCC/C(C)=C/COc1ccc2oc(=O)ccc2c1 | > 100 | 12 | – | –
CC(C)=CCOc1ccc2oc(=O)ccc2c1 | > 100 | > 100 | – | –
O=c1ccc2cc(O)ccc2o1 [6-HYDROXYCOUMARIN] | > 100 | > 100 | – | –
CC(C)=CCC/C(C)=C/CO [GERANIOL] | > 100 | – | 20 | –
CC(C)=CCC/C(C)=C/CC/C(C)=C/COc1ccc2oc(=O)ccc2c1 | > 100 | 4 | – | Dose-dependent effect
CC(C)=CCC/C(C)=C/CC/C(C)=C/CO [FARNESOL] | > 100 | – | 40 | –
CC(C)=CCC/C(C)=C/COc1ccc2ccc(=O)oc2c1 [AURAPTENE] | > 100 | 21 | – | –
CC(C)=CCOc1cc2ccccc2oc1=O | > 100 | > 100 | – | –
O=c1ccc2ccc(O)cc2o1 [UMBELLIFERONE] | > 100 | > 100 | – | –
O=c1oc2ccccc2cc1O [3-HYDROXYCOUMARIN] | > 100 | > 100 | – | –
CC(C)=CCC/C(C)=C/COc1cc2ccccc2oc1=O | > 100 | 37 | – | –
CC(C)=CCC/C(C)=C/CC/C(C)=C/COc1ccc2ccc(=O)oc2c1 [UMBELLIPRENIN] | > 100 | 18 | – | –
CC(C)=CCO | > 100 | > 100 | – | –
CC(C)=CCC/C(C)=C/CC/C(C)=C/COc1cc2ccccc2oc1=O | > 100 | 12 | – | –
CC(C)=CCOc1ccc2ccc(=O)oc2c1 [7-PRENYLOXYCOUMARIN] | > 100 | 83 | – | –

From ChEMBL document CHEMBL3351987, “Synthesis and biological evaluation of isoprenylated coumarins as potential anti-pancreatic cancer agents” (2014)
